Consider 33 compounds from patent US6066642A, “Dihydropyridine-, pyridine-, benzopyran-4-one- and triazoloquinazoline derivative, their preparation and their use as adenosine receptor antagonists” (priority 1998, dated 2000).

Where two headings read alike, the source gives them in different places.

Common to all, as to conditions: for inhibition at 100 µM: 10^-4 M
For test [1], the target named is T1, A1 receptors (Rattus norvegicus, UniProt P25099).
T1 sequence (P25099 1-326): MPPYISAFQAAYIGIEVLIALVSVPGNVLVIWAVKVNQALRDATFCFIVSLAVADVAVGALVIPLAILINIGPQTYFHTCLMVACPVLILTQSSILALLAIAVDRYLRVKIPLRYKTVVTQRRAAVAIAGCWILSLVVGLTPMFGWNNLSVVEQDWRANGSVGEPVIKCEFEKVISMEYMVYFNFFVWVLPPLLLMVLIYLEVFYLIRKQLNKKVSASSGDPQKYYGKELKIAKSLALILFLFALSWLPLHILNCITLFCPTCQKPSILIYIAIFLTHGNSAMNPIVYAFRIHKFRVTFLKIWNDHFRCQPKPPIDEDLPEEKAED
Kind of test: biochemical. The test is classed as binding.
Protocol: ^a Displacement of specific [^3 H] PIA binding in rat brain
percentage of specific binding displaced at 100 μM.

For test [2], the target named is T2, human A3 receptors (Homo sapiens, UniProt P0DMS8).
T2 construct: expressed in transfected cells; host or cells: HEK-293 cells (membranes)
T2 sequence (P0DMS8 1-318): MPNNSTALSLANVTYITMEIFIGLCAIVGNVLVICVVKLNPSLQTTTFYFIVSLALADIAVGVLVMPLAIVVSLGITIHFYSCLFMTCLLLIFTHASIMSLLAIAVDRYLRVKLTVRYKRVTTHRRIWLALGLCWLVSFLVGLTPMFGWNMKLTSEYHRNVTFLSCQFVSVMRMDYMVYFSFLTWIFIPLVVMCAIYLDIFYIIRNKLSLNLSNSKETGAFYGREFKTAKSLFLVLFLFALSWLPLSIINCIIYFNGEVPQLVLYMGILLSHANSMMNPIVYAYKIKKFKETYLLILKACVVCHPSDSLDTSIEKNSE
In words: radioligand binding, displacement of specific [125I]AB-MECA binding at human A3 receptors expressed in HEK-293 cells.
Protocol: A3 receptors expressed in HEK293 cells, in membranes, expressed as
binding displaced at 100 μM.

For test [3], the target named is T3, A2a receptors (Rattus norvegicus, UniProt P30543).
T3 construct: Displacement of specific [^3 H]; from tissue; host or cells: rat striatal membranes
Kind of test: radioligand binding, displacement of specific [3H]CGS 21680 binding in rat striatal membranes.
Protocol: ^b Displacement of specific [^3 H]
or as a percentage of specific binding displaced at 100 μM.

The mark [4] stands for this setting: Table 6, [125I]AB-MECA, HEK-293 membranes, read-out: K2 (hA3).
[5] abbreviates: Table 7, [3H]CGS 21680, rat striatal membranes, read-out: Ki (rA2A).
[6] abbreviates: Table 11, [125I]AB-MECA, HEK membranes, read-out: Ki hA3.
[7] abbreviates: Table 12, read-out: % inhibition rA2A.
Setting [8] is: Table 15, [125I]AB-MECA, HEK membranes, read-out: Ki hA3.
Where [9] appears, read: Table 12, [125I]AB-MECA, HEK membranes, read-out: Ki hA3.
The mark [10] stands for this setting: Table 7, read-out: % of specific binding displaced hA3.
Setting [11] is: Table 16, [125I]AB-MECA, HEK membranes, read-out: Ki hA3.
Setting [12] is: Table 3, [125I]AB-MECA, HEK-293 membranes, read-out: Ki hA3.
Setting [13] is: Table 12, read-out: displacement of specific binding rA1.
Where [14] appears, read: Table 12, read-out: % inhibition rA1.

T3 sequence (P30543 whole entry): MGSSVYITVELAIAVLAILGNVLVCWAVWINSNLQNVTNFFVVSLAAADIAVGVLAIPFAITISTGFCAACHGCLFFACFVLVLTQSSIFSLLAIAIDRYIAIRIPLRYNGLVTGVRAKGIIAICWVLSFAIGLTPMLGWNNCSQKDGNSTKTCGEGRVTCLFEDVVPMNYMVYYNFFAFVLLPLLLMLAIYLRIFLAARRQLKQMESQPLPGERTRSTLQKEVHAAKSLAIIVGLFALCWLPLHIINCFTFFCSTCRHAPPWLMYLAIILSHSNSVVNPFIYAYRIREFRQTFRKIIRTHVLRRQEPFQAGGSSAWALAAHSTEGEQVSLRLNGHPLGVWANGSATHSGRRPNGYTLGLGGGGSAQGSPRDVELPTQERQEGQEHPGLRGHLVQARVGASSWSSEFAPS

For `COc1ccc(-c2oc3cc(OC)cc(OC)c3c(=O)c2OC)cc1` [Compound 35, 3,4',5,7-tetramethoxyflavone], the Ki in test [1] (Table 6, [3H]PIA, rat brain membranes, read-out: K2 (rA1)) came out at 1070 nM; in test [2] (setting [4]) it was 3370 ± 1830 nM.
As to `COc1cc2c3c(oc(=O)c2cc1OC)CCCC3=O` [Compound 45], the Ki in test [3] (setting [5]) was 29900 ± 10100 nM. Besides, the inhibition at 100 µM in test [2] (Table 7, read-out: displacement of specific binding hA3) is less than 10%.
On to `CCOC(=O)C1=C(C)NC(c2ccccc2)=C(C(=O)OCc2ccccc2)C1C#Cc1ccc(N)c(I)c1` (stereo not shown) [Compound 104], for which the Ki in test [2] (setting [6]) is less than 100 nM.
As for `CCOC(=O)C1=C(C)NC(c2ccccc2)=C(C(=O)O)C1C#Cc1ccccc1` (racemic) [Compound 131, 3-Ethoxycarbonyl-2-methyl-4-phenylethynyl-6-phenyl-1,4(±)-dihydropyridine-5-carboxylic acid], in test [3] (setting [7]), the inhibition at 100 µM was 16 ± 6%. For the same compound, the inhibition at 10 µM in test [2] (Table 12, 10^-5 M, read-out: displacement of specific binding hA3) was less than 10%.
As to “9-Chloro-2-(2-furyl)-5-(4'-iodobenzoyl)amino[1,2,4]triazolo [1,5-c]quinazoline [Compound 152]”, the Ki in test [2] (setting [8]) came out at 23.8 ± 5.2 nM.
In the case of `CCOCN1C(C)=C(C(=O)OCC)C(C#Cc2ccccc2)C(C(=O)O)=C1c1ccccc1` (racemic) [Compound 139, 1-Ethoxymethyl-3-ethoxycarbonyl-2-methyl-4-phenylethynyl-6-phenyl-1,4-(±)-dihydropyridine-5-carboxylic acid], the inhibition at 100 µM in test [3] (setting [7]) worked out at 36 ± 7%. This compound registered a rA1/hA3 in test [2] greater than 1. In addition, the Ki in test [2] (setting [9]) was greater than 100000 nM.
Take `COc1cc(O)c2c(c1)O[C@H](c1ccc(O)cc1)CC2=O` [Compound 42, sakuranetin, reference compound]: the Ki in test [2] (Table 7, [125I]AB-MECA, HEK-293 membranes, read-out: Ki (hA3)) stood at 3400 ± 180 nM.
Turning to `Nc1nc2ccc(Cl)cc2c2nc(-c3ccco3)nn12` [Compound 144, reference compound], the Ki in test [2] (read-out: Ki hA3) is 13.8 ± 2.4 nM.
In the case of `O=c1c(-c2ccc(O)cc2)coc2cc(O)cc(O)c12` [Compound 40, genistein, reference compound], the inhibition at 100 µM in test [2] (setting [10]) was determined as 20 ± 2%.
As to `O=C(CCc1ccccc1)Nc1nc2ccc(Cl)cc2c2nc(-c3ccco3)nn12` [Compound 160], the results for the Ki in test [3] (read-out: Ki rA2A) and in test [2] (setting [11]) were 28.3 ± 10.3 nM and 29.7 ± 7.7 nM, respectively.
`O=C(Cc1ccc([N+](=O)[O-])cc1)Nc1nc2ccc(Cl)cc2c2nc(-c3ccco3)nn12` [Compound 162]: the Ki in test [1] (Table 16, [3H]R-PIA, rat brain membranes, read-out: Ki rA1) stood at 28 nM; in test [2] (setting [11]), 8.7 ± 0.97 nM.
As to `CCOC(=O)C1=C(C)NC(c2ccccc2)=C(C(=O)OCc2ccccc2)C1C#Cc1ccc([N+](=O)[O-])cc1` (stereo not shown) [Compound 102], the Ki in test [2] (setting [6]) was less than 100 nM.
For the compound `O=C1c2ccccc2O[C@H](c2ccccc2O)[C@H]1O` (relative stereo) [Compound 14, reference compound], the inhibition at 100 µM is less than 10% in test [3] (Table 4, read-out: displacement of specific binding rA2a) and 27 ± 3% in test [2] (Table 4, read-out: % of specific binding displaced hA3). The rA1/hA3 in test [2] (Table 4, ratio of Ki) is less than 1.
On to `CCCOc1cc(OCCC)c2c(=O)c(OCCC)c(-c3ccccc3)oc2c1` [Compound 4, 3,5,7-Tripropyloxyflavone], for which the Ki in test [1] (Table 3, [3H]PIA, rat brain membranes, read-out: Ki rA1) came to 1100 ± 200 nM; in test [2] (setting [12]) it was 317 nM.
Turning to `CCOC(=O)C1=C(C)NC(c2ccccc2)=C(C(=O)OCC)C1/C=C/c1ccccc1` (stereo not shown) [Compound 79], the Ki in test [3] (Table 9, [3H]CGS 21680, rat striatal membranes, read-out: Ki rA2A) was found to be 4770 ± 290 nM. In addition, the “greater affinity for A3 than A1 or A2a adenosine receptors” value in test [2] (selectivity in words) was “greater affinity for A3 adenosine receptors than A1 or A2a adenosine receptors”.
With `COc1ccc(-c2cc(=O)c3c(OC)c(OC)c(OC)cc3o2)cc1` [Compound 31, reference compound], the Ki is 1290 ± 80 nM in test [1] (brain membranes, read-out: K2 (rA1)) and 4480 ± 140 nM in test [2] (setting [4]).
Turning to `Nc1ccc(CC(=O)Nc2nc3ccc(Cl)cc3c3nc(-c4ccco4)nn23)cc1I` [Compound 164], in test [2] (setting [11]), the Ki turned out to be 1 nM.
On to `Nc1nc2ccc(Cl)cc2c2nc(-c3ccc(Br)o3)nn12` [Compound 157], for which the Ki in test [2] (setting [8]) stood at 54 ± 13.1 nM.
`COc1ccc(-c2ccncc2)cc1` [Compound 83]: the Ki in test [3] (Table 10, [3H]CGS 21680, rat striatal membranes, read-out: Ki rA2a) is 71000 ± 29000 nM. In test [2] (Table 10, read-out: displacement of specific binding hA3), the inhibition at 100 µM was less than 10%.
`Nc1ccc(CC(=O)Nc2nc3ccc(Cl)cc3c3nc(-c4ccco4)nn23)cc1` [Compound 163]: the Ki in test [2] (setting [11]) stood at 4 nM.
On to `CCOC(=O)C1=C(C)NC(c2ccccc2)=C(C(=O)OCCCc2ccccc2)C1C#Cc1ccccc1` (racemic) [Compound 126, 3-Ethyl 5-phenylpropyl 2-methyl-4-phenylethynyl-6-phenyl-1,4-(±)-dihydropyridine-3,5-dicarboxylate], for which the inhibition at 100 µM was less than 10% in test [1] (setting [13]) and less than 10% in test [3] (Table 12, read-out: displacement of specific binding rA2A).
On to `CC(C)(C)OC(=O)Nc1nc2ccc(Cl)cc2c2nc(-c3ccco3)nn12` [Compound 150, 5-[(tert.-Butoxycarbonyl)amino]-9-chloro-2-(2-furyl)[1,2,4]triazolo[1,5-c]quinazoline], for which the Ki stood at 190 ± 16 nM in test [1] (Table 15, [3H]PIA, rat brain membranes, read-out: Ki rA1) and 92 ± 8 nM in test [3] (Table 15, [3H]CGS 21680, rat striatal membranes, read-out: Ki rA2A).
Consider `CCOc1ccc(-c2oc3cc(OCC)cc(OCC)c3c(=O)c2OCC)c(OCC)c1` [Compound 8, 2',3,4',5,7-Pentaethoxyflavone], for which the Ki amounted to 26800 nM in test [3] (Table 3, [3H]CGS 21680, rat striatal membranes, read-out: Ki rA2a) and 7270 ± 1880 nM in test [2] (setting [12]).
As to `CCOC(=O)C1=C(C)NC(c2ccccc2)=C(C(=O)OCc2cccc(C)c2)C1C#Cc1ccccc1` (racemic) [Compound 122b, 3-Ethyl 5-(3-methylbenzyl)-4-phenylethynyl-6-phenyl-1,4(±)-dihydropyridine-3.5-dicarboxylate], the inhibition at 100 µM in test [1] (setting [13]) is less than 10%; in test [3] (setting [7]), 16 ± 2%.
Regarding `CCOC(=O)C1=C(C)NC(c2ccccc2)=C(C(=O)OCC)C1/C=C/c1ccc([N+](=O)[O-])cc1` (stereo not shown) [Compound 118], the inhibition at 100 µM in test [1] (setting [14]) came to 31%; in test [3] (setting [7]) it was 26%.
With `CCOC(=O)C1=C(C)NC(c2ccccc2)=C(C(=O)OCc2ccc(C(=O)NCCN)cc2)C1C#Cc1ccccc1` (stereo not shown) [Compound 123], the Ki in test [2] (setting [9]) is 10 nM.
Regarding `CCCOc1c2ccoc2cc2oc(/C=C/c3ccccc3)cc(=O)c12` [Compound 21, 4-propyloxy-7-trans-styryl-visnagin], the Ki in test [2] (Table 5, [125I]AB-MECA, HEK-293 membranes, read-out: Ki hA3) was 3950 nM.
Turning to `CCOC(=O)C1=C(C)NC(c2ccccc2)=C(C(=O)OCc2ccccc2C)C1C#Cc1ccccc1` (racemic) [Compound 122a], the inhibition at 100 µM in test [1] (setting [14]) was 16 ± 1%; in test [3] (setting [7]), 13%.
Turning to `O=c1cc(-c2ccccc2)oc2cccc(O)c12` [Compound 25, reference compound], in test [3] (Table 6, [3H]CGS 21680, rat striatal membranes, read-out: K2 (rA2a)), the Ki turned out to be 6200 ± 1240 nM. In test [2] (Table 6, read-out: % inhibition hA3), the inhibition at 100 µM was 47 ± 12%.
`CCOC(=O)C1=C(c2ccccc2)NC(C)=C(C(=O)OCc2ccccc2)C1/C=C/c1ccccc1` (stereo not shown) [Compound 105]: the inhibition at 100 µM is less than 10% in test [1] (Table 11, read-out: displacement of specific binding rA1) and 16 ± 11% in test [3] (Table 11, read-out: % inhibition rA2A).
Consider `O=C1c2ccccc2-c2cc3c(cc21)OCO3` [Compound 49, 2,3-methylenedioxy-fluorene-9-one], for which the Ki in test [3] (setting [5]) amounted to 84000 ± 6900 nM. Further, in test [2] (setting [10]), the inhibition at 100 µM turned out to be 52 ± 6%.
For `CCOC(=O)C1=C(C)NC(c2ccccc2)=C(C(=O)OCc2ccccc2)C1C#Cc1ccc(N)cc1` (stereo not shown) [Compound 103], in test [2] (setting [6]), the Ki is less than 100 nM.
For `COc1cc(O)c2c(=O)c(O)c(-c3ccc(O)c(O)c3)oc2c1` [Compound 36, rhamnetin, reference compound], the Ki in test [2] (setting [4]) is 1380 ± 180 nM.
